Laboratory results published in patent US4517359A, “11-Methyl-11-aza-4-0-cladinosyl-6-0-desosaminyl-15-ethyl-7,1 3,14-trihydroxy-3,5,7,9,12,14-hexamethyl-oxacyclopentadecane-2-one and derivatives thereof” (Sour Pliva farmaceutska, kemijska prehrambena i kozmeticka …, priority 1981, dated 1985).
Converted amounts (≈) assume the structure as drawn. Like-named read-outs stand apart in the source and are kept apart here.

Assays:
Sarcina lutea ATCC 9341 = experiment: Minimum Inhibitory Concentration (MIC), in vitro; type: cell-based; conditions: Micrococcus luteus
[1] = tested on: Bacillus subtilis ATCC 6633; experiment: Minimum Inhibitory Concentration (MIC), in vitro; type: cell-based
[2] = tested on: Staphylococcus epidermidis ATCC 12228; experiment: Minimum Inhibitory Concentration (MIC), in vitro; type: cell-based
[3] = tested on: Streptococcus faecalis ATCC 8043; experiment: Minimum Inhibitory Concentration (MIC), in vitro; type: cell-based; conditions: Enterococcus faecalis
[4] = tested on: Bacillus cereus var. mycoides ATCC 11778; experiment: microbe, parasite or virus in culture; type: cell-based; conditions: ATCC11778, read-out: Minimum Inhibitory Concentration (MIC)
[5] = tested on: Staphylococcus aureus ATCC 6538-P; experiment: Minimum Inhibitory Concentration (MIC), in vitro; type: cell-based
[6] = tested on: Micrococcus flavus ATCC 10240; experiment: Minimum Inhibitory Concentration (MIC), in vitro; type: cell-based
[7] = tested on: series of test microorganisms; experiment: in vitro test on a series of test microorganisms (MIC), overall; type: cell-based; conditions: test strains of Tables 1 and 2; in comparison with starting 11-aza-10-deoxo-10-dihydro erythromycin A
Protocol: The new compounds were tested in vitro on a series of test microorganisms.

bacteria = conditions: versus erythromycin A (U.S. Pat. No. 3,417,077; Rocz. Chem. 46, 2212-2217, 1972); cited from earlier work
[8] = ATCC9341, Sarcina lutea ATCC 9341, in vitro, read-out: Minimum Inhibitory Concentration (MIC)
[9] = ATCC6633, Bacillus subtilis ATCC 6633, in vitro, read-out: Minimum Inhibitory Concentration (MIC)
[10] = ATCC12228, Staphylococcus epidermidis ATCC 12228, in vitro, read-out: Minimum Inhibitory Concentration (MIC)
[11] = ATCC8043, Streptococcus faecalis ATCC 8043, in vitro, read-out: Minimum Inhibitory Concentration (MIC)
[12] = ATCC6538, Staphylococcus aureus ATCC 6538-P, in vitro, read-out: Minimum Inhibitory Concentration (MIC)
[13] = ATCC10240, Micrococcus flavus ATCC 10240, in vitro, read-out: Minimum Inhibitory Concentration (MIC)

Structure (SMILES) | MIC (Sarcina lutea ATCC 9341; [8]) [µg/mL] | MIC [1, 9] [µg/mL] | MIC [2, 10] [µg/mL] | MIC [3, 11] [µg/mL] | MIC [4] [µg/mL] | MIC [5, 12] [µg/mL] | MIC [6, 13] [µg/mL] | MIC (Sarcina lutea ATCC 9341; ATCC9341, read-out: Minimum Inhibitory Concentration (MIC)) [µg/mL] | MIC ([1]; Bacillus subtilis, ATCC6633, read-out: Minimum Inhibitory Concentration (MIC)) [µg/mL] | MIC ([2]; Staphylococcus epidermidis, ATCC12228, read-out: Minimum Inhibitory Concentration (MIC)) [µg/mL] | MIC ([3]; ATCC8043, read-out: Minimum Inhibitory Concentration (MIC)) [µg/mL] | MIC ([5]; Staphylococcus aureus, ATCC6538, read-out: Minimum Inhibitory Concentration (MIC)) [µg/mL] | MIC ([6]; Micrococcus flavus, ATCC10240, read-out: Minimum Inhibitory Concentration (MIC)) [µg/mL] | antibacterial activity in words [7] | antibacterial activity compared with the starting antibiotic (bacteria)
CC[C@H]1OC(=O)[C@H](C)[C@@H](O[C@H]2C[C@@](C)(OC)[C@@H](O)[C@H](C)O2)[C@H](C)[C@@H](O[C@@H]2O[C@H](C)C[C@H](N(C)C)[C@H]2OC(C)=O)[C@](C)(O)C[C@@H](C)CN(C)[C@H](C)[C@H]2OC(=O)O[C@@]21C [Example 8, 2'-acetyl-N-methyl-11-aza-10-deoxo-10-dihydro erythromycin A 13,14-cyclic carbonate] | 0.05 (≈ 0.0612 µM) | 0.1 (≈ 0.122 µM) | 0.5 (≈ 0.612 µM) | 0.05 (≈ 0.0612 µM) | 0.1 (≈ 0.122 µM) | 0.1 (≈ 0.122 µM) | 0.1 (≈ 0.122 µM) | – | – | – | – | – | – | – | –
CC[C@H]1OC(=O)[C@H](C)[C@@H](O[C@H]2C[C@@](C)(OC)[C@@H](OC(C)=O)[C@H](C)O2)[C@H](C)[C@@H](O[C@@H]2O[C@H](C)C[C@H](N(C)C)[C@H]2OC(C)=O)[C@](C)(O)C[C@@H](C)CN(C)[C@H](C)[C@H]2OC(=O)O[C@@]21C [Example 9, 2',4"-diacetyl-N-methyl-11-aza-10-deoxo-10-dihydro erythromycin A 13,14-cyclic carbonate] | 0.1 (≈ 0.116 µM) | 2.5 (≈ 2.91 µM) | 2.5 (≈ 2.91 µM) | 0.5 (≈ 0.582 µM) | 2.5 (≈ 2.91 µM) | 2.5 (≈ 2.91 µM) | 1 (≈ 1.16 µM) | – | – | – | – | – | – | – | –
CC[C@H]1OC(=O)[C@H](C)[C@@H](O[C@H]2C[C@@](C)(OC)[C@@H](O)[C@H](C)O2)[C@H](C)[C@@H](O[C@@H]2O[C@H](C)C[C@H](N(C)C)[C@H]2OC(C)=O)[C@](C)(O)C[C@@H](C)CN(C)[C@H](C)[C@@H](O)[C@]1(C)O [Example 2, 2'-acetyl-N-methyl-11-aza-10-deoxo-10-dihydro erythromycin A] | – | – | – | – | 0.5 (≈ 0.632 µM) | – | – | 0.1 (≈ 0.126 µM) | 0.1 (≈ 0.126 µM) | 0.5 (≈ 0.632 µM) | 0.1 (≈ 0.126 µM) | 0.5 (≈ 0.632 µM) | 0.5 (≈ 0.632 µM) | – | –
CC[C@H]1OC(=O)[C@H](C)[C@@H](O[C@H]2C[C@@](C)(OC)[C@@H](O)[C@H](C)O2)[C@H](C)[C@@H](O[C@@H]2O[C@H](C)C[C@H](N(C)C)[C@H]2O)[C@](C)(O)C[C@@H](C)CN(C)[C@H](C)[C@@H](O)[C@]1(C)O [Example 1, N-methyl-11-aza-10-deoxo-10-dihydro erythromycin A] | 0.05 (≈ 0.0668 µM) | 0.1 (≈ 0.134 µM) | 0.5 (≈ 0.668 µM) | 0.01 (≈ 0.0134 µM) | 0.5 (≈ 0.668 µM) | 0.5 (≈ 0.668 µM) | 0.01 (≈ 0.0134 µM) | – | – | – | – | – | – | superior effect on some tested microorganisms | –
CC[C@H]1OC(=O)[C@H](C)[C@@H](O[C@H]2C[C@@](C)(OC)[C@@H](O)[C@H](C)O2)[C@H](C)[C@@H](O[C@@H]2O[C@H](C)C[C@H](N(C)C)[C@H]2O)[C@](C)(O)C[C@@H](C)C(=O)[C@H](C)[C@H]2OC(=O)O[C@@]21C [11,12-cyclic carbonate of erythromycin A] | – | – | – | – | – | – | – | – | – | – | – | – | – | – | improved antibacterial activity
CCC(=O)O[C@H]1[C@H](O[C@@H]2[C@@H](C)[C@H](O[C@H]3C[C@@](C)(OC)[C@@H](OC(=O)CC)[C@H](C)O3)[C@@H](C)C(=O)O[C@H](CC)[C@@](C)(O)[C@H](O)[C@@H](C)N(C)C[C@H](C)C[C@@]2(C)O)O[C@H](C)C[C@@H]1N(C)C [Example 6, 2',4"-dipropionyl-N-methyl-11-aza-10-deoxo-10-dihydro erythromycin] | 0.05 (≈ 0.0581 µM) | 0.1 (≈ 0.116 µM) | 0.1 (≈ 0.116 µM) | 0.1 (≈ 0.116 µM) | 0.5 (≈ 0.581 µM) | 0.5 (≈ 0.581 µM) | 0.5 (≈ 0.581 µM) | – | – | – | – | – | – | – | –
CCC(=O)O[C@H]1[C@H](O[C@@H]2[C@@H](C)[C@H](O[C@H]3C[C@@](C)(OC)[C@@H](O)[C@H](C)O3)[C@@H](C)C(=O)O[C@H](CC)[C@@](C)(O)[C@H](O)[C@@H](C)N(C)C[C@H](C)C[C@@]2(C)O)O[C@H](C)C[C@@H]1N(C)C [Example 5, 2'-propionyl-N-methyl-11-aza-10-dihydro erythromycin A] | 0.05 (≈ 0.0621 µM) | 0.5 (≈ 0.621 µM) | 0.05 (≈ 0.0621 µM) | 0.05 (≈ 0.0621 µM) | 0.5 (≈ 0.621 µM) | 0.1 (≈ 0.124 µM) | 0.05 (≈ 0.0621 µM) | – | – | – | – | – | – | – | –
CC[C@H]1OC(=O)[C@H](C)[C@@H](O[C@H]2C[C@@](C)(OC)[C@@H](O)[C@H](C)O2)[C@H](C)[C@@H](O[C@@H]2O[C@H](C)C[C@H](N(C)C)[C@H]2O)[C@](C)(O)C[C@@H](C)CN(C)[C@H](C)[C@H]2OC(=O)O[C@@]21C [Example 7, N-methyl-11-aza-10-deoxo-10-dihydro erythromycin A 13,14-cyclic carbonate] | 0.1 (≈ 0.129 µM) | 0.1 (≈ 0.129 µM) | 0.5 (≈ 0.645 µM) | 0.05 (≈ 0.0645 µM) | 0.1 (≈ 0.129 µM) | 0.1 (≈ 0.129 µM) | 0.1 (≈ 0.129 µM) | – | – | – | – | – | – | – | –
CCC(=O)O[C@H]1[C@H](O[C@@H]2[C@@H](C)[C@H](O[C@H]3C[C@@](C)(OC)[C@@H](OC(=O)CC)[C@H](C)O3)[C@@H](C)C(=O)O[C@H](CC)[C@@]3(C)OC(=O)O[C@@H]3[C@@H](C)N(C)C[C@H](C)C[C@@]2(C)O)O[C@H](C)C[C@@H]1N(C)C [Example 11, 2',4"-dipropionyl-N-methyl-11-aza-10-deoxo-10-dihydro erythromycin A 13,14-cyclic carbonate] | 0.05 (≈ 0.0564 µM) | 1 (≈ 1.13 µM) | 2.5 (≈ 2.82 µM) | 0.1 (≈ 0.113 µM) | 1 (≈ 1.13 µM) | 2.5 (≈ 2.82 µM) | 0.5 (≈ 0.564 µM) | – | – | – | – | – | – | – | –
CCC(=O)O[C@H]1[C@H](O[C@@H]2[C@@H](C)[C@H](O[C@H]3C[C@@](C)(OC)[C@@H](O)[C@H](C)O3)[C@@H](C)C(=O)O[C@H](CC)[C@@]3(C)OC(=O)O[C@@H]3[C@@H](C)N(C)C[C@H](C)C[C@@]2(C)O)O[C@H](C)C[C@@H]1N(C)C [Example 10, 2'-propionyl-N-methyl-11-aza-10-deoxo-10-dihydro erythromycin A 13,14-cyclic carbonate] | 0.05 (≈ 0.0602 µM) | 1 (≈ 1.2 µM) | 0.5 (≈ 0.602 µM) | 0.1 (≈ 0.12 µM) | 0.5 (≈ 0.602 µM) | 0.5 (≈ 0.602 µM) | 0.5 (≈ 0.602 µM) | – | – | – | – | – | – | – | –
CC[C@H]1OC(=O)[C@H](C)[C@@H](O[C@H]2C[C@@](C)(OC)[C@@H](OC(C)=O)[C@H](C)O2)[C@H](C)[C@@H](O[C@@H]2O[C@H](C)C[C@H](N(C)C)[C@H]2OC(C)=O)[C@](C)(O)C[C@@H](C)CN(C)[C@H](C)[C@@H](OC(C)=O)[C@]1(C)O [Example 4, 2',4"-13-triacetyl-N-methyl-11-aza-10-deoxo-10-dihydro erythromycin A] | – | – | – | – | – | – | – | – | – | – | – | – | – | did not exhibit any satisfactory activity | –
CC[C@H]1OC(=O)[C@H](C)[C@@H](O[C@H]2C[C@@](C)(OC)[C@@H](OC(C)=O)[C@H](C)O2)[C@H](C)[C@@H](O[C@@H]2O[C@H](C)C[C@H](N(C)C)[C@H]2OC(C)=O)[C@](C)(O)C[C@@H](C)CN(C)[C@H](C)[C@@H](O)[C@]1(C)O [Example 3, 2',4"-diacetyl-N-methyl-11-aza-10-deoxo-10-dihydro erythromycin A] | 0.1 (≈ 0.12 µM) | 2.5 (≈ 3 µM) | 2.5 (≈ 3 µM) | 0.5 (≈ 0.6 µM) | 0.5 (≈ 0.6 µM) | 0.5 (≈ 0.6 µM) | 0.1 (≈ 0.12 µM) | – | – | – | – | – | – | – | –
CC[C@H]1OC(=O)[C@H](C)[C@@H](O[C@H]2C[C@@](C)(OC)[C@@H](O)[C@H](C)O2)[C@H](C)[C@@H](O[C@@H]2O[C@H](C)C[C@H](N(C)C)[C@H]2O)[C@](C)(O)C[C@@H](C)CN[C@H](C)[C@@H](O)[C@]1(C)O [Standard, 11-aza-10-deoxo-10-dihydro erythromycin A, reference compound] | 0.05 (≈ 0.068 µM) | 0.5 (≈ 0.68 µM) | 0.5 (≈ 0.68 µM) | 0.05 (≈ 0.068 µM) | 0.5 (≈ 0.68 µM) | 0.5 (≈ 0.68 µM) | 0.05 (≈ 0.068 µM) | – | – | – | – | – | – | – | –
